{
  "source": "paper PMC5733301",
  "about": "“Antitubercular Nitroimidazoles Revisited: Synthesis and Activity of the Authentic 3-Nitro Isomer of Pretomanid” (ACS Medicinal Chemistry Letters, 2017)",
  "origin": "cited, not measured here",
  "key": {"[1]": {"system": "M. tb having mutations in the nitroreductase Ddn", "parameters": "method as in PMID 19209889", "conditions": "ref [22]; cited from earlier work"}, "[2]": {"system": "M. tb having mutations in the nitroreductase Ddn", "parameters": "method as in PMID 19209889", "conditions": "ref [22]; cited from earlier work", "remark": "listed apart in the source"}},
  "data": [
    {"smiles": "O=[N+]([O-])c1cn2c(n1)O[C@H](COCc1ccc(OC(F)(F)F)cc1)C2", "note": "[compound 20]", "values": [
      {"measurement": "anaerobic MIC90 against Ddn mutant M. tb", "setting": "[1]", "value": "62.5 to 125", "unit": "µM"},
      {"measurement": "aerobic MIC99 against Ddn mutant M. tb", "setting": "[2]", "value": "> 100", "unit": "µM"}
    ]}
  ]
}
